Our source for the MIC and IC50 values is ChEMBL document CHEMBL3124853, “Synthesis and anti-Candidal activity of N-(4-aryl/cyclohexyl)-2-(pyridine-4-yl carbonyl) hydrazinecarbothioamide” (Bioorg Med Chem Lett, 2014).

Assay [1] has as its system Candida. Briefly: Antifungal activity against Candida sp. clinical isolate 11972 derived from high vaginal swabs by microbroth dilution method. In kind it is functional.
The subject of assay [2] is A549. Briefly: Cytotoxicity against human A549 cells after 48 hrs by MTT assay. In kind it is cell-based. Particulars: A549, 48 h. A general note: Tetrazolium assays rely on reduction of a dye to a coloured formazan, in cell work by metabolically active cells.
A short description of assay [3]: Cytotoxicity against human HT1080 cells after 48 hrs by MTT assay. Particulars: HT-1080, 48 h. Type of assay: cell-based.
For assay [4], the system named is Candida. Briefly: Antifungal activity against Candida sp. clinical isolate 12341 derived from urine by microbroth dilution method. Type of assay: functional. The conditions noted are these: clinical isolate 12341, Urine. On the technique in general: In broth dilution the organism is exposed to a series of concentrations in liquid medium.
Assay [5] concerns Candida. Briefly: Antifungal activity against Candida sp. clinical isolate 13184 derived from high vaginal swabs by microbroth dilution method. Type of assay: functional.
In assay [6] the test system is HepG2. The assay is described as follows: Cytotoxicity against human HepG2 cells after 48 hrs by MTT assay. In kind it is cell-based. Particulars: HepG2, 48 h.
The test system of assay [7] is Candida. The assay is described as follows: Antifungal activity against Candida sp. clinical isolate 12485 derived from urine by microbroth dilution method. In kind it is functional. Particulars: clinical isolate 12485, Urine.
Assay [8] deals with Candida tropicalis. The assay is described as follows: Antifungal activity against Candida tropicalis ATCC 66029 by microbroth dilution method. Type of assay: functional.
Assay [9] has as its system Candida. Briefly: Antifungal activity against Candida sp. clinical isolate 12810 derived from blood by microbroth dilution method. Type of assay: functional.
Assay [10] is described as follows: Cytotoxicity against human MCF10A cells after 48 hrs by WST1 assay. Particulars: MCF-10A. In kind it is cell-based.
The test system of assay [11] is Candida parapsilosis. Briefly: Antifungal activity against Candida parapsilosis ATCC 22019 by microbroth dilution method. The conditions noted are these: Lodderomyces parapsilosis. In kind it is functional.
Assay [12] relates to Candida albicans. Briefly: Antifungal activity against Candida albicans ATCC 66027 by microbroth dilution method. In kind it is functional.
Assay [13] relates to Candida. The assay is described as follows: Antifungal activity against Candida sp. clinical isolate 300 derived from urine by microbroth dilution method. The conditions noted are these: clinical isolate 300, Urine. In kind it is functional.
In assay [14] the test system is Candida. Briefly: Antifungal activity against Candida sp. clinical isolate 178 derived from high vaginal swabs by microbroth dilution method. Type of assay: functional.

Converted amounts (≈) assume the structure as drawn.

By MIC is commonly meant the lowest concentration that inhibits growth of the organism. High values mean a need for much substance, low ones inhibition by little substance. By IC50 is commonly meant the concentration that inhibits the measured activity by half. Low readings indicate greater potency, high ones weaker potency. For the compound `O=C(NNC(=S)Nc1ccc(Cl)cc1)c1ccncc1`, the MIC in [1] came to 0.19 µg/mL (≈ 0.619 µM); in assay [4], 0.19 µg/mL (≈ 0.619 µM); in [5] it was 0.78 µg/mL (≈ 2.54 µM); in [7], 0.39 µg/mL (≈ 1.27 µM); in assay [8], 0.19 µg/mL (≈ 0.619 µM); in [9] it was 0.09 µg/mL (≈ 0.293 µM). Moreover, the MIC was 0.19 µg/mL (≈ 0.619 µM) in assay [11], 0.09 µg/mL (≈ 0.293 µM) in assay [12], 0.39 µg/mL (≈ 1.27 µM) in [13] and 0.19 µg/mL (≈ 0.619 µM) in [14]. Besides, the IC50 was 410 µg/mL (≈ 1340 µM) in assay [2], 540 µg/mL (≈ 1760 µM) in [3], 1200 µg/mL (≈ 3910 µM) in assay [6] and greater than 300 µM in assay [10].
For the compound `CCC(C)n1ncn(-c2ccc(N3CCN(c4ccc(OCC5COC(Cn6cncn6)(c6ccc(Cl)cc6Cl)O5)cc4)CC3)cc2)c1=O` (stereo unspecified) [ITRACONAZOLE], the MIC was found to be 0.02 µg/mL (≈ 0.0283 µM) in [1]; 0.09 µg/mL (≈ 0.128 µM) in [4]; 0.39 µg/mL (≈ 0.553 µM) in assay [5]; 0.04 µg/mL (≈ 0.0567 µM) in [7]; 0.19 µg/mL (≈ 0.269 µM) in [8]; 0.25 µg/mL (≈ 0.354 µM) in assay [9]. The MIC was 0.04 µg/mL (≈ 0.0567 µM) in assay [11], 1.56 µg/mL (≈ 2.21 µM) in assay [12], 0.09 µg/mL (≈ 0.128 µM) in assay [13] and 0.19 µg/mL (≈ 0.269 µM) in [14]. Moreover, the IC50 is 182 µg/mL (≈ 258 µM) in assay [2], 202 µg/mL (≈ 286 µM) in assay [3], 142 µg/mL (≈ 201 µM) in [6] and greater than 300 µM in [10].
Consider `O=C(NNC(=S)Nc1ccccc1[N+](=O)[O-])c1ccncc1`, for which the MIC in assay [1] is 6.25 µg/mL (≈ 19.7 µM); in assay [4] it was 6.25 µg/mL (≈ 19.7 µM); in [5], 0.78 µg/mL (≈ 2.46 µM); in [7], 0.39 µg/mL (≈ 1.23 µM); in assay [8] it was 0.19 µg/mL (≈ 0.599 µM); in assay [9], 0.39 µg/mL (≈ 1.23 µM). In addition, the MIC in [11] amounted to 6.25 µg/mL (≈ 19.7 µM); in [12] it was 1.6 µg/mL (≈ 5.04 µM); in [13], 1.6 µg/mL (≈ 5.04 µM); in assay [14], 0.39 µg/mL (≈ 1.23 µM). The half-inhibitory concentration (IC50) was 813 µg/mL (≈ 2560 µM) in assay [2], 833 µg/mL (≈ 2630 µM) in [3], 410 µg/mL (≈ 1290 µM) in assay [6] and greater than 300 µM in assay [10].
`O=C(NNC(=S)Nc1ccccc1)c1ccncc1`: the MIC was found to be 6.25 µg/mL (≈ 22.9 µM) in [1]; 1.6 µg/mL (≈ 5.88 µM) in assay [4]; 12.5 µg/mL (≈ 45.9 µM) in assay [5]; 1.6 µg/mL (≈ 5.88 µM) in [7]; 1.6 µg/mL (≈ 5.88 µM) in [8]; 0.78 µg/mL (≈ 2.86 µM) in assay [9]. Moreover, the MIC in assay [11] is 0.39 µg/mL (≈ 1.43 µM); in assay [12] it was 0.19 µg/mL (≈ 0.698 µM); in [13], 0.19 µg/mL (≈ 0.698 µM); in assay [14], 6.25 µg/mL (≈ 22.9 µM). The IC50 is 2040 µg/mL (≈ 7500 µM) in assay [2], 684 µg/mL (≈ 2510 µM) in [3], 716 µg/mL (≈ 2630 µM) in assay [6] and greater than 300 µM in [10].
